# From patent US8178077B2, “Drug development target protein and target gene, and method of screening” (Reverse Proteomics Research Institute Co., Ltd., priority 2004, dated 2012)
# Biological target: T1, FLJ39196 clone-derived protein (human neurocalcin δ) (Homo sapiens, UniProt P61601)
# T1 construct: A human full-length cDNA clone was expressed as a protein with an N-terminal His tag; His tag (N); made in house; host or cells: Escherichia coli BL21star(DE3)pLysS (pDEST17 Gateway expression plasmid)
# Assay: SEC/MS interaction analysis (size exclusion spin column and mass analysis) with FLJ39196 clone-derived protein
# Assay type: binding
# Source text: To analyze the interactions between commonly used drugs and proteins expressed from human full-length cDNA clones while keeping both the proteins and the compounds in non-modified, non-immobilized state, size exclusion chromatography (SEC) and mass analysis were used in combination (FIGS. 1, 2). The specific procedures are shown below.
# The compound-protein mixture prepared in step 1 was subjected to chromatography using an SEC column, the compound and the protein were separated by SEC, and the compound that interacted with the bound compound or protein contained in the protein fraction was analyzed using a mass analyzer.
# Protein concentrations were measured using BCA Protein Assay (PIERCE), in consideration of the purity calculated by SDS-PAGE.
# Mass analysis was performed using LCQ DECA XP (Thermoelectron) or Q-TOFmicro (Micromass), equipped with an ESI probe. The LC pump used was Agilent 1100 (Yokogawa Analytical Systems), and the autosampler used was HTC-PAL (CTC Analytics) equipped with a cooling stacker.
# In the SEC method using 384-well spin columns, Unifilter 100 (Whatman), packed with 10 μL (dry volume) of Bio-Gel P6 (BIO-RAD) and swollen with milliQ water, was used as the SEC column. 13.3 μL of a protein-free reference standard or a 25 μM protein standard and 0.7 μL of a multiplied liquid comprising 25 μM of each pharmaceutical compound (5% DMSO aqueous solution) were mixed; 9 μL of this mixture was aliquoted into the SEC spin columns. The SEC spin column was mounted on an acetonitrile-aliquoted 384-well U-bottom plate and centrifuged; the SEC spin column filtrate, which is a protein fraction, was retrieved in 50% acetonitrile. The protein precipitate produced by the acetonitrile was removed via centrifugation and filtration for deproteinization; the resulting filtrate was concentrated by centrifugation and re-dissolved in 10 μL of 50% methanol to obtain a mass analysis sample. The mobile phase supplied to the mass analyzer was 0.1% formic acid/50% methanol solution in the positive ion mode, and 0.1% ammonia/50% methanol solution in the negative ion mode; these mobile phases were used at a flow rate of 40 μL/min. 2-μL of mass analysis samples were injected using an autosampler at 2-minute intervals; the mass spectral intensity of the compound was measured to obtain the spectral intensity of the pharmaceutical compound contained in the SEC spin column filtrate (protein fraction eluted from SEC).
# [1] = protein 0 μM (protein-free reference), compound 1 μM
# [2] = protein 0 μM (protein-free reference), compound 10 μM
# [3] = protein 0 μM (protein-free reference), compound 100 μM
# [4] = protein 0 μM (protein-free reference), compound 250 μM
# [5] = protein 23.75 μM, compound 1 μM
# [6] = protein 23.75 μM, compound 10 μM
# [7] = protein 23.75 μM, compound 100 μM
# [8] = protein 23.75 μM, compound 250 μM
# [9] = protein 47.5 μM, compound 10 μM
# [10] = protein 47.5 μM, compound 100 μM
# [11] = protein 47.5 μM, compound 250 μM
compound,measurement,setting,value
CCc1cc2c(s1)N(C)C(=O)CN=C2c1ccccc1Cl [clotiazepam],spectral intensity of the compound in the SEC spin column filtrate (protein fraction),[1],8089543
same,spectral intensity of the compound in the SEC spin column filtrate (protein fraction),[2],19826757
same,spectral intensity of the compound in the SEC spin column filtrate (protein fraction),[3],251469420
same,spectral intensity of the compound in the SEC spin column filtrate (protein fraction),[4],633414607
same,spectral intensity of the compound in the SEC spin column filtrate (protein fraction),[5],8254340
same,spectral intensity of the compound in the SEC spin column filtrate (protein fraction),[6],25038949
same,spectral intensity of the compound in the SEC spin column filtrate (protein fraction),[7],283452799
same,spectral intensity of the compound in the SEC spin column filtrate (protein fraction),[8],759706893
same,spectral intensity of the compound in the SEC spin column filtrate (protein fraction),"protein 47.5 μM, compound 1 μM",9022620
same,spectral intensity of the compound in the SEC spin column filtrate (protein fraction),[9],60448900
same,spectral intensity of the compound in the SEC spin column filtrate (protein fraction),[10],657940514
same,spectral intensity of the compound in the SEC spin column filtrate (protein fraction),[11],1089985810
CCCCCCCCNC(C)C(O)c1ccc(SC(C)C)cc1 (centres unmarked) [Suloctidil],spectral intensity of the compound in the SEC spin column filtrate (protein fraction),[1],6080126
same,spectral intensity of the compound in the SEC spin column filtrate (protein fraction),[2],3684060
same,spectral intensity of the compound in the SEC spin column filtrate (protein fraction),[3],4969067
same,spectral intensity of the compound in the SEC spin column filtrate (protein fraction),[4],9177432
same,spectral intensity of the compound in the SEC spin column filtrate (protein fraction),[5],4318261
same,spectral intensity of the compound in the SEC spin column filtrate (protein fraction),[6],7828150
same,spectral intensity of the compound in the SEC spin column filtrate (protein fraction),[7],163940015
same,spectral intensity of the compound in the SEC spin column filtrate (protein fraction),[8],357100809
same,spectral intensity of the compound in the SEC spin column filtrate (protein fraction),"protein 47.5 μM, compound 1 μM",5977944
same,spectral intensity of the compound in the SEC spin column filtrate (protein fraction),[9],7209043
same,spectral intensity of the compound in the SEC spin column filtrate (protein fraction),[10],507388292
same,spectral intensity of the compound in the SEC spin column filtrate (protein fraction),[11],742015343
Cc1cc(-c2ccccc2)nnc1NCCN1CCOCC1 [Minaprine],spectral intensity of the compound in the SEC spin column filtrate (protein fraction),[1],15652447
same,spectral intensity of the compound in the SEC spin column filtrate (protein fraction),[2],95722839
same,spectral intensity of the compound in the SEC spin column filtrate (protein fraction),[3],530918568
same,spectral intensity of the compound in the SEC spin column filtrate (protein fraction),[4],1025547751
same,spectral intensity of the compound in the SEC spin column filtrate (protein fraction),[5],10946604
same,spectral intensity of the compound in the SEC spin column filtrate (protein fraction),[6],88615018
same,spectral intensity of the compound in the SEC spin column filtrate (protein fraction),[7],727082711
same,spectral intensity of the compound in the SEC spin column filtrate (protein fraction),[8],1272226745
same,spectral intensity of the compound in the SEC spin column filtrate (protein fraction),"protein 47.5 μM, compound 1 μM",10185140
same,spectral intensity of the compound in the SEC spin column filtrate (protein fraction),[9],49245292
same,spectral intensity of the compound in the SEC spin column filtrate (protein fraction),[10],427303459
same,spectral intensity of the compound in the SEC spin column filtrate (protein fraction),[11],1448860391
Dihydroergotoxine mesylate,spectral intensity of the compound in the SEC spin column filtrate (protein fraction),"measured mass range m/z 564.1-565.1, protein 0 μM (protein-free reference), compound 1 μM",25150786
same,spectral intensity of the compound in the SEC spin column filtrate (protein fraction),"measured mass range m/z 564.1-565.1, protein 0 μM (protein-free reference), compound 10 μM",29311635
same,spectral intensity of the compound in the SEC spin column filtrate (protein fraction),"measured mass range m/z 564.1-565.1, protein 0 μM (protein-free reference), compound 100 μM",76261189
same,spectral intensity of the compound in the SEC spin column filtrate (protein fraction),"measured mass range m/z 564.1-565.1, protein 0 μM (protein-free reference), compound 250 μM",326128137
same,spectral intensity of the compound in the SEC spin column filtrate (protein fraction),"measured mass range m/z 564.1-565.1, protein 23.75 μM, compound 1 μM",19680823
same,spectral intensity of the compound in the SEC spin column filtrate (protein fraction),"measured mass range m/z 564.1-565.1, protein 23.75 μM, compound 10 μM",36914079
same,spectral intensity of the compound in the SEC spin column filtrate (protein fraction),"measured mass range m/z 564.1-565.1, protein 23.75 μM, compound 100 μM",177369018
same,spectral intensity of the compound in the SEC spin column filtrate (protein fraction),"measured mass range m/z 564.1-565.1, protein 23.75 μM, compound 250 μM",232715490
same,spectral intensity of the compound in the SEC spin column filtrate (protein fraction),"measured mass range m/z 564.1-565.1, protein 47.5 μM, compound 1 μM",16556794
same,spectral intensity of the compound in the SEC spin column filtrate (protein fraction),"measured mass range m/z 564.1-565.1, protein 47.5 μM, compound 10 μM",45033425
same,spectral intensity of the compound in the SEC spin column filtrate (protein fraction),"measured mass range m/z 564.1-565.1, protein 47.5 μM, compound 100 μM",221983211
same,spectral intensity of the compound in the SEC spin column filtrate (protein fraction),"measured mass range m/z 564.1-565.1, protein 47.5 μM, compound 250 μM",530510575
same,spectral intensity of the compound in the SEC spin column filtrate (protein fraction),"measured mass range m/z 577.9-578.9, protein 0 μM (protein-free reference), compound 1 μM",17036968
same,spectral intensity of the compound in the SEC spin column filtrate (protein fraction),"measured mass range m/z 577.9-578.9, protein 0 μM (protein-free reference), compound 10 μM",25343556
same,spectral intensity of the compound in the SEC spin column filtrate (protein fraction),"measured mass range m/z 577.9-578.9, protein 0 μM (protein-free reference), compound 100 μM",62894601
same,spectral intensity of the compound in the SEC spin column filtrate (protein fraction),"measured mass range m/z 577.9-578.9, protein 0 μM (protein-free reference), compound 250 μM",234871658
same,spectral intensity of the compound in the SEC spin column filtrate (protein fraction),"measured mass range m/z 577.9-578.9, protein 23.75 μM, compound 1 μM",25890358
same,spectral intensity of the compound in the SEC spin column filtrate (protein fraction),"measured mass range m/z 577.9-578.9, protein 23.75 μM, compound 100 μM",421344902
same,spectral intensity of the compound in the SEC spin column filtrate (protein fraction),"measured mass range m/z 577.9-578.9, protein 23.75 μM, compound 250 μM",408003600
same,spectral intensity of the compound in the SEC spin column filtrate (protein fraction),"measured mass range m/z 577.9-578.9, protein 47.5 μM, compound 1 μM",31988946
same,spectral intensity of the compound in the SEC spin column filtrate (protein fraction),"measured mass range m/z 577.9-578.9, protein 47.5 μM, compound 10 μM",207450982
same,spectral intensity of the compound in the SEC spin column filtrate (protein fraction),"measured mass range m/z 577.9-578.9, protein 47.5 μM, compound 100 μM",908698063
same,spectral intensity of the compound in the SEC spin column filtrate (protein fraction),"measured mass range m/z 577.9-578.9, protein 47.5 μM, compound 250 μM",1265975868
same,spectral intensity of the compound in the SEC spin column filtrate (protein fraction),"measured mass range m/z 611.7-612.7, protein 0 μM (protein-free reference), compound 1 μM",18486648
same,spectral intensity of the compound in the SEC spin column filtrate (protein fraction),"measured mass range m/z 611.7-612.7, protein 0 μM (protein-free reference), compound 10 μM",24024699
same,spectral intensity of the compound in the SEC spin column filtrate (protein fraction),"measured mass range m/z 611.7-612.7, protein 0 μM (protein-free reference), compound 100 μM",30737736
same,spectral intensity of the compound in the SEC spin column filtrate (protein fraction),"measured mass range m/z 611.7-612.7, protein 0 μM (protein-free reference), compound 250 μM",58888872
same,spectral intensity of the compound in the SEC spin column filtrate (protein fraction),"measured mass range m/z 611.7-612.7, protein 23.75 μM, compound 1 μM",35126832
same,spectral intensity of the compound in the SEC spin column filtrate (protein fraction),"measured mass range m/z 611.7-612.7, protein 23.75 μM, compound 10 μM",106708813
same,spectral intensity of the compound in the SEC spin column filtrate (protein fraction),"measured mass range m/z 611.7-612.7, protein 23.75 μM, compound 100 μM",397014202
same,spectral intensity of the compound in the SEC spin column filtrate (protein fraction),"measured mass range m/z 611.7-612.7, protein 23.75 μM, compound 250 μM",267260198
same,spectral intensity of the compound in the SEC spin column filtrate (protein fraction),"measured mass range m/z 611.7-612.7, protein 47.5 μM, compound 1 μM",40595551
same,spectral intensity of the compound in the SEC spin column filtrate (protein fraction),"measured mass range m/z 611.7-612.7, protein 47.5 μM, compound 10 μM",194133547
same,spectral intensity of the compound in the SEC spin column filtrate (protein fraction),"measured mass range m/z 611.7-612.7, protein 47.5 μM, compound 100 μM",931095764
same,spectral intensity of the compound in the SEC spin column filtrate (protein fraction),"measured mass range m/z 611.7-612.7, protein 47.5 μM, compound 250 μM",1112309560
